Assay results from US10385097B2, “Ether compounds for treatment of medical disorders” (Achillion Pharmaceuticals, Inc., priority 2015, dated 2019).
Like-named read-outs stand apart in the source and are kept apart here.

Molecular target: T1, Human Factor D (Homo sapiens, UniProt P00746)
T1 construct: purified from human serum; purchased Complement Technology, Inc; host or cells: human serum (natural protein, not recombinant)
Assay: Human Factor D Assay
Assay type: biochemical
Method: Example 8. Human Factor D Assay
Human Factor D (purified from human serum, Complement Technology, Inc.) at 80 nM final concentration is incubated with test compound at various concentrations for 5 minutes at room temperature in 50 mM Tris, 1M NaCl, pH 7.5. A synthetic substrate Z-L-Lys-SBzl and DTNB (Ellman's reagent) are added to final concentrations of 100 μM each. Absorbance at 405 nm (A405) is recorded at 30 second intervals for 30 minutes using a microplate spectrophotometer. IC50 values are calculated by nonlinear regression of complement Factor D reaction rates as a function of test compound concentration.

[1] = Table 1, Human Factor D 80 nM, substrate Z-L-Lys-SBzl, read-out: IC50
[2] = Table 2, Human Factor D 80 nM, substrate Z-L-Lys-SBzl, read-out: IC50
[3] = Table 3, Human Factor D 80 nM, substrate Z-L-Lys-SBzl, read-out: (IC50 (Stars))

T1 sequence (P00746 26-253): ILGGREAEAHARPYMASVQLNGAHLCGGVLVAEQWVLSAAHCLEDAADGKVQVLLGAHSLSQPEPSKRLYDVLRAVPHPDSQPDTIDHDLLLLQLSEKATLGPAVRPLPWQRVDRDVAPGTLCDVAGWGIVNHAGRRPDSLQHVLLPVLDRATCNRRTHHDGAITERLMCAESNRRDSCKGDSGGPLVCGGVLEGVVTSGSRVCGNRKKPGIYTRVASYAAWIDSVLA

Row | Compound | IC50 [3] [µM] | also measured
1 | CC(=O)c1cn(CC(=O)N2C[C@H](F)C[C@H]2C(=O)Nc2cccc(-c3ccccc3Cl)c2F)c2ccc(Oc3ncc(F)cn3)cc12 [Compound 37, (2S,4R)-1-(2-(3-acetyl-5-(5-fluoropyrimidin-2-yloxy)-1H-indol-1-yl)acetyl)-N-(2′-chloro-2-fluorobiphenyl-3-yl)-4-fluoropyrrolidine-2-carboxamide] | – | IC50 [1]: < 1 µM
2 | CC(=O)c1cn(CC(=O)N2C[C@H](F)C[C@H]2C(=O)Nc2cccc(-c3ccccc3Cl)c2F)c2ccc(Oc3ncccn3)cc12 [Compound 38, (2S,4R)-1-(2-(3-acetyl-5-(pyrimidin-2-yloxy)-1H-indol-1-yl)acetyl)-N-(2′-chloro-2-fluorobiphenyl-3-yl)-4-fluoropyrrolidine-2-carboxamide] | – | IC50 [1]: < 1 µM
3 | CC(=O)c1cn(CC(=O)N2C[C@H](F)C[C@H]2C(=O)Nc2cccc(Br)n2)c2ccc(Oc3ncccn3)cc12 [Compound 39, (2S,4R)-1-(2-(3-acetyl-5-(pyrimidin-2-yloxy)-1H-indol-1-yl)acetyl)-N-(6-bromopyridin-2-yl)-4-fluoropyrrolidine-2-carboxamide] | – | IC50 [1]: < 1 µM
4 | CC(=O)c1cn(CC(=O)N2C[C@H](F)C[C@H]2C(=O)Nc2cccc(-c3ccccc3Cl)c2F)c2ccc(Oc3ncc(C)cn3)cc12 [Compound 40, (2S,4R)-1-(2-(3-acetyl-5-(5-methylpyrimidin-2-yloxy)-1H-indol-1-yl)acetyl)-N-(2′-chloro-2-fluorobiphenyl-3-yl)-4-fluoropyrrolidine-2-carboxamide] | – | IC50 [1]: < 1 µM
5 | CC(=O)c1cn(CC(=O)N2C[C@H](F)C[C@H]2C(=O)Nc2cccc(Br)n2)c2ccc(Oc3ncc(C)cn3)cc12 [Compound 41, (2S,4R)-1-(2-(3-acetyl-5-(5-methylpyrimidin-2-yloxy)-1H-indol-1-yl)acetyl)-N-(6-bromopyridin-2-yl)-4-fluoropyrrolidine-2-carboxamide] | – | IC50 [1]: < 1 µM
6 | CC(=O)c1cn(CC(=O)N2C[C@H](F)C[C@H]2C(=O)Nc2cccc(-c3ccccc3Cl)c2F)c2ccc(Oc3ncc(C(F)(F)F)cn3)cc12 [Compound 42, (2S,4R)-1-(2-(3-acetyl-5-(5-(trifluoromethyl)pyrimidin-2-yloxy)-1H-indol-1-yl)acetyl)-N-(2′-chloro-2-fluorobiphenyl-3-yl)-4-fluoropyrrolidine-2-carboxamide] | – | IC50 [1]: < 1 µM
7 | CC(=O)c1cn(CC(=O)N2C[C@H](F)C[C@H]2C(=O)Nc2cccc(-c3ccccc3Cl)c2F)c2ccc(Oc3cnc(Cl)nc3)cc12 [Compound 43, (2S,4R)-1-(2-(3-acetyl-5-(2-chloropyrimidin-5-yloxy)-1H-indol-1-yl)acetyl)-N-(2′-chloro-2-fluorobiphenyl-3-yl)-4-fluoropyrrolidine-2-carboxamide] | – | IC50: < 1 µM
8 | CC(=O)c1cn(CC(=O)N2C[C@H](F)C[C@H]2C(=O)Nc2cccc(-c3ccccc3Cl)c2F)c2ccc(O[C@@H]3CO[C@H]4[C@@H]3OC[C@H]4O)cc12 [Compound 44] | – | IC50 [2]: < 1 µM
9 | CC(=O)c1cn(CC(=O)N2C[C@H](F)C[C@H]2C(=O)Nc2cccc(Br)n2)c2ccc(O[C@@H]3CO[C@H]4[C@@H]3OC[C@H]4O)cc12 [Compound 45, (2S,4R)-1-(2-(3-acetyl-5-((3R,3aR,6R,6aR)-6-hydroxyhexahydrofuro[3,2-b]furan-3-yloxy)-1H-indol-1-yl)acetyl)-N-(6-bromopyridin-2-yl)-4-fluoropyrrolidine-2-carboxamide] | – | IC50 [2]: < 1 µM
10 | CO[C@@H]1CO[C@H]2[C@@H]1OC[C@H]2Oc1ccc2c(c1)c(C(C)=O)cn2CC(=O)N1C[C@H](F)C[C@H]1C(=O)Nc1cccc(-c2ccccc2Cl)c1F [Compound 46, (2S,4R)-1-(2-(3-acetyl-5-((3R,3aR,6R,6aR)-6-methoxyhexahydrofuro[3,2-b]furan-3-yloxy)-1H-indol-1-yl)acetyl)-N-(2′-chloro-2-fluorobiphenyl-3-yl)-4-fluoropyrrolidine-2-carboxamide] | – | IC50 [2]: < 1 µM
11 | CO[C@@H]1CO[C@H]2[C@@H]1OC[C@H]2Oc1ccc2c(c1)c(C(C)=O)cn2CC(=O)N1C[C@H](F)C[C@H]1C(=O)Nc1cccc(Br)n1 [Compound 47, (2S,4R)-1-(2-(3-acetyl-5-((3R,3aR,6R,6aR)-6-methoxyhexahydrofuro[3,2-b]furan-3-yloxy)-1H-indol-1-yl)acetyl)-N-(6-bromopyridin-2-yl)-4-fluoropyrrolidine-2-carboxamide] | – | IC50 [2]: < 1 µM
12 | CC(=O)c1cn(CC(=O)N2C[C@H](F)C[C@H]2C(=O)NCc2ccccc2)c2ccc(OCS(=O)(=O)NC(C)(C)C)cc12 [Compound 129, (2S,4R)-1-(2-(3-Acetyl-5-((N-(tert-butyl)sulfamoyl)methoxy)-1H-indol-1-yl)acetyl)-N-benzyl-4-fluoropyrrolidine-2-carboxamide] | < 1 | –
13 | CC(=O)c1cn(CC(=O)N2C[C@H](F)C[C@H]2C(=O)NCCc2ccccc2)c2ccc(OCS(=O)(=O)NC(C)(C)C)cc12 [Compound 132, (2S,4R)-1-(2-(3-Acetyl-5-((N-(tert-butyl)sulfamoyl)methoxy)-1H-indol-1-yl)acetyl)-4-fluoro-N-phenethylpyrrolidine-2-carboxamide] | < 1 | –
14 | CC(=O)c1cn(CC(=O)N2C[C@H](F)C[C@H]2C(=O)NCCCc2ccccc2)c2ccc(OCS(=O)(=O)NC(C)(C)C)cc12 [Compound 135, (2S,4R)-1-(2-(3-Acetyl-5-((N-(tert-butyl)sulfamoyl)methoxy)-1H-indol-1-yl)acetyl)-4-fluoro-N-(3-phenylpropyl)pyrrolidine-2-carboxamide] | < 1 | –
15 | CC(=O)c1cn(CC(=O)N2C[C@H](F)C[C@H]2C(=O)NCCCCc2ccccc2)c2ccc(OCS(=O)(=O)NC(C)(C)C)cc12 [Compound 138, (2S,4R)-1-(2-(3-Acetyl-5-((N-(tert-butyl)sulfamoyl)methoxy)-1H-indol-1-yl)acetyl)-4-fluoro-N-(4-phenylbutyl)pyrrolidine-2-carboxamide] | < 1 | –
16 | CC(=O)c1cn(CC(=O)N2C[C@H](F)C[C@H]2C(=O)NCCCCc2ccccc2)c2ccc(OCS(N)(=O)=O)cc12 [Compound 139, (2S,4R)-1-(2-(3-Acetyl-5-(sulfamoylmethoxy)-1H-indol-1-yl)acetyl)-4-fluoro-N-(4-phenylbutyl)pyrrolidine-2-carboxamide] | 1 to 10 | –
17 | CCOP(=O)(COc1ccc2c(c1)c(C(C)=O)cn2CC(=O)N1C[C@H](F)C[C@H]1C(=O)NCc1ccccc1)OCC [Compound 144, Diethyl (((3-acetyl-1-(2-((2S,4R)-2-(benzylcarbamoyl)-4-fluoropyrrolidin-1-yl)-2-oxoethyl)-1H-indol-5-yl)oxy)methyl)phosphonate] | < 1 | –
18 | CCOP(=O)(COc1ccc2c(c1)c(C(C)=O)cn2CC(=O)N1C[C@H](F)C[C@H]1C(=O)NCCc1ccccc1)OCC [Compound 146, Diethyl (((3-acetyl-1-(2-((2S,4R)-4-fluoro-2-(phenethylcarbamoyl)pyrrolidin-1-yl)-2-oxoethyl)-1H-indol-5-yl)oxy)methyl)phosphonate] | < 1 | –

Continued, in another order:

Row | IC50 [3] [µM] | Compound | also measured
19 | < 1 | CC(=O)c1cn(CC(=O)N2C[C@H](F)C[C@H]2C(=O)NCc2ccccc2)c2ccc(OCS(N)(=O)=O)cc12 [Compound 130, (2S,4R)-1-(2-(3-Acetyl-5-(sulfamoylmethoxy)-1H-indol-1-yl)acetyl)-N-benzyl-4-fluoropyrrolidine-2-carboxamide] | –
20 | 1 to 10 | CC(=O)c1cn(CC(=O)N2C[C@H](F)C[C@H]2C(=O)NCCc2ccccc2)c2ccc(OCS(N)(=O)=O)cc12 [Compound 133, (2S,4R)-1-(2-(3-Acetyl-5-(sulfamoylmethoxy)-1H-indol-1-yl)acetyl)-4-fluoro-N-phenethylpyrrolidine-2-carboxamide] | –
21 | < 1 | CC(=O)c1cn(CC(=O)N2C[C@H](F)C[C@H]2C(=O)NCCCc2ccccc2)c2ccc(OCS(N)(=O)=O)cc12 [Compound 136, (2S,4R)-1-(2-(3-Acetyl-5-(sulfamoylmethoxy)-1H-indol-1-yl)acetyl)-4-fluoro-N-(3-phenylpropyl)pyrrolidine-2-carboxamide] | –
22 | < 1 | CC(=O)c1cn(CC(=O)N2C[C@H](F)C[C@H]2C(=O)NCc2cccc(Cl)c2F)c2ccc(OCS(=O)(=O)NC(C)(C)C)cc12 [Compound 140, (2S,4R)-1-(2-(3-Acetyl-5-((N-(tert-butyl)sulfamoyl)methoxy)-1H-indol-1-yl)acetyl)-N-(3-chloro-2-fluorobenzyl)-4-fluoropyrrolidine-2-carboxamide] | –
23 | < 1 | CC(=O)c1cn(CC(=O)N2C[C@H](F)C[C@H]2C(=O)NCc2cccc(Cl)c2F)c2ccc(OCS(N)(=O)=O)cc12 [Compound 141, (2S,4R)-1-(2-(3-Acetyl-5-(sulfamoylmethoxy)-1H-indol-1-yl)acetyl)-N-(3-chloro-2-fluorobenzyl)-4-fluoropyrrolidine-2-carboxamide] | –
24 | 1 to 10 | CC(=O)c1cn(CC(=O)N2C[C@H](F)C[C@H]2C(=O)NCc2ccccc2)c2ccc(OCP(=O)(O)O)cc12 [Compound 145, (((3-Acetyl-1-(2-((2S,4R)-2-(benzylcarbamoyl)-4-fluoropyrrolidin-1-yl)-2-oxoethyl)-1H-indol-5-yl)oxy)methyl)phosphonic acid] | –
25 | > 10 | CC(=O)c1cn(CC(=O)N2C[C@H](F)C[C@H]2C(=O)NCCc2ccccc2)c2ccc(OCP(=O)(O)O)cc12 [Compound 147, (((3-Acetyl-1-(2-((2S,4R)-4-fluoro-2-(phenethylcarbamoyl)pyrrolidin-1-yl)-2-oxoethyl)-1H-indol-5-yl)oxy)methyl)phosphonic acid] | –
